The text below walks through data of US20150080234A1, “Cell Patterning” (priority 2013, published 2015).

The test system of one test is GHOST cells. The experiment in a line: cell pattern maintenance / cell migration inhibition assay (media additives and hydrogels). It counts as cell-based. How it is done: One significant advantage afforded by WAP is the ability to an addressable link with stimuli with delayed signal development in cells, such as infection, proliferation, or migration. For implementation of the nano-neutralization assay, a technique for preventing pattern disruption was developed over time due to proliferation and migration of GHOST cells over the course of infection signal development. The effect of several media additives and hydrogels for the maintenance of patterns was tested.
Cell patterns were formed as described above. Arrays were imaged at 0, 24, and 48 hrs immediately after addition of 1 μM calcein AM live cell stain (Life Technologies) in PBS. Media additives were diluted directly into culture media at the indicated concentration. Cell proliferation (P) was calculated per block (4 wells per block) as the ratio of cells at time of imaging to the number of starting cells at time zero. Cell migration (M) was calculated as Nfull×P−Nwell, where Nfull is the number of cells per field of view, P is the proliferation rate, and Nwell is the number of cells per well.

In a further test the test system is cell motility. The settings on record: cited from earlier work.
Another test has as its target CCR5 (Homo sapiens, UniProt P51681). The settings on record: lowers the effective CCR5 concentration; cited from earlier work.
A further test has as its system ACH2 cells. The experiment in a line: virus production by ACH2 cells in micro-wells detected by WAP. It is filed as cell-based. The settings on record: ACH2 cells stimulated vs unstimulated, all loading densities, FIG. 6(b). How it is done: FIGS. 6(a)-(b) illustrate one embodiment of detection/analysis of latently infected T cells using WAP. That is, as shown, WAP can be applied to study functional characteristics, such as virus production, of cells loaded into micro-wells. ACH2 cells produce HIV virus when stimulated with the cytokine TNFα. […] These cells produce virus when stimulated with TNFα, which can be contained in the media. The target cell coated slide is incubated with the array, removed, then allowed to incubate while biological signal develops (e.g. GFP accumulation). […] The median percent infection is higher in the presence of TNFα for each ACH2 cell count. In addition to assaying viral production capability, functional characteristics of virus producing cells in the micro-wells, such as gene expression, surface marker expression, or secretion of biomolecules of interest could provide functional information about virally infected cells.

CCR5, sequence (P51681 whole entry): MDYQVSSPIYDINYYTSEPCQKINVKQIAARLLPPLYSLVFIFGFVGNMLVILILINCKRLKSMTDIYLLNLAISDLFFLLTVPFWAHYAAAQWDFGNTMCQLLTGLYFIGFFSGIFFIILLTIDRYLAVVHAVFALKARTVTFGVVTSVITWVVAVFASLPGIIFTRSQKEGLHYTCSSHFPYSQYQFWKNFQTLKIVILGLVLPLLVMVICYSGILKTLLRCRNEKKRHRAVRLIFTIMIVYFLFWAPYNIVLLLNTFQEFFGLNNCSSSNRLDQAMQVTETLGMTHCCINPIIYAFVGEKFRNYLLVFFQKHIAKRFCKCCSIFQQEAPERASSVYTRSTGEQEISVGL

As for `CS(=O)(=O)c1cccc(CNc2nc(Nc3ccc4c(c3)CCC(=O)N4)ncc2C(F)(F)F)c1` [PF-573228], in the test with GHOST cells (10 μM), the “individual pattern maintenance for the time required for signal development” value is “resulted in individual pattern maintenance”. Besides, the “proliferation of patterned cells (Nt/Nto per block)” value with GHOST cells (FIG. 15(b), 24 or 48 hours) was “reduced proliferation of patterned cells”. Also, the “migration of patterned cells (number of cells migrating out of patterns)” value in the test with GHOST cells (FIG. 15(c), p<0.0001 Mann-Whitney U test) is recorded as “reduced migration of patterned cells”. In the test on GHOST cells (added to media, 0 hr vs 24 hrs post patterning, FIG. 9(f)), the “loss of cell patterns” value was “prevents loss of cell patterns”. The “effect on cell motility and adhesion” value with cell motility was “inhibit cell motility but not adhesion”.
As to `Cc1ccc(-c2ccc3c(c2)C=C(C(=O)Nc2ccc(C[N+](C)(C)C4CCOCC4)cc2)CCC3)cc1.[Cl-]` [TAK779], the “effect on HIV-1 entry” value at CCR5 is listed as “slows HIV-1 entry”.
In the case of `C[C@@H](N)[C@H]1CC[C@H](C(=O)Nc2ccncc2)CC1` [Y-27632], in the test with cell motility, the “effect on cell motility and adhesion” value is recorded as “inhibit cell motility but not adhesion”.
As to TNFα, the “median percent infection of patterned cells” value with ACH2 cells is given as “greater median percent infection”.
